System: Saccharomyces cerevisiae yeast
Test: Laboratory fermentation trial: formation of alcohol and lactic acid (HPLC)
Format: cell-based
Experimental: A study was conducted to determine the degree of impact of the fermentation antimicrobial Penicillin G Procaine and Penicillin G potassium during alcohol production by fermentation. The antimicrobial impact was inferred by conducting a series of fermentations and measuring if the above said antibiotics interfered with the cell growth and the fermentation function of Saccharomyces cerevisiae yeast used in the fermentation phase. This study provided analysis of what impact, if any, the Penicillin G Procaine or Penicillin G Potassium has on the yeast during lab scale fermentations, specifically BioFerm® XR yeast from North American Bioproducts Corporation (NABC). This study observed the ability of yeast to replicate and ferment a corn mash substrate with and without the presence of Penicillin G Procaine or Penicillin G Potassium. This study was set up in a series of fermentation vessels. All antibiotic concentrations were tested in triplicate. Cell counts were done on one flask for each treatment at 12, 24, 36 and 48 hours and testing of the fermentation reactions by HPLC was also performed at 12, 24, 36 and 48 hours. The experiment was set as follows: 3. Fermentations were set up using 31% solids corn mash using saccharifying enzymes and the following procedure: A. Yeast Conditioning: • 1. Add 2 g yeast to 10 ml sterile water for each 3 flasks to test, (14 g yeast to 70 ml water) into a sterile 250 ml flask and place in water bath set to 100° F. • 2. Incubate at 100° F. for 30 minutes with occasional mixing. • 3. Remove flasks from water bath and divide suspension between the all flasks for the trial. B. Fermentation Procedure • 1. To prepared mash, add the following. • a. Add 0.58 g urea/liter mash and mix. • b. Add 0.2 ml GA per liter and mix. • 2. Remove sample for background HPLC testing. • 3. Add antibiotic solution to labeled sterile 250 ml flasks. • 4. Add hydrated yeast suspension to mash and mix well. • 5. Add sterile stir bar to each flask and add about 150 ml mash into each 250 ml flask for a total of 21 flasks. • 6. Cover each flask with a gas trap in a sterilized stopper. • 7. Place in a 33° C. water bath with continuous mixing at 280 rpm at 75% power. • 8. Remove sample at 12 hr interval to perform cell count, viability and budding. • 9. Incubate sample up to 48 hours, enough time for complete fermentation • 10. Collect samples at the following times for cell counts and HPLC testing: 12 hours; 24 hours; 36 hours and 48 hours The proper functioning of the yeast is often attributed to the higher efficiency with which it can convert the sugars formed in a fermentation process to the desired alcohol. Also the number of yeast cells in a fermentation mix is an important factor as it will be entropically favored to convert the available sugar molecules to ethanol and carbon dioxide. The sugar in the fermentation mix apart from being converted to ethanol is also used by the yeast for its metabolism and growth and by the concerned “industry normal” Lactobacillus fermentum bacteria converting the sugar to lactic acid.

Compound	% Lactic Acid (5 ppm, 12 hours) [%]	% wt EtOH (5 ppm, 12 hours) [% wt]	% Lactic Acid (5 ppm, 24 hours) [%]	% wt EtOH (5 ppm, 24 hours) [% wt]	% Lactic Acid (5 ppm, 36 hours) [%]	% wt EtOH (5 ppm, 36 hours) [% wt]	% Lactic Acid (5 ppm, 48 hours) [%]	% wt EtOH (5 ppm, 48 hours) [% wt]	% Lactic Acid (15 ppm, 12 hours) [%]	% wt EtOH (15 ppm, 12 hours) [% wt]	% Lactic Acid (15 ppm, 24 hours) [%]	% wt EtOH (15 ppm, 24 hours) [% wt]	% Lactic Acid (15 ppm, 36 hours) [%]	% wt EtOH (15 ppm, 36 hours) [% wt]	% Lactic Acid (15 ppm, 48 hours) [%]	% wt EtOH (15 ppm, 48 hours) [% wt]	% Lactic Acid (30 ppm, 12 hours) [%]	% wt EtOH (30 ppm, 12 hours) [% wt]	% Lactic Acid (30 ppm, 24 hours) [%]	% wt EtOH (30 ppm, 24 hours) [% wt]	further results
CC1(C)S[C@@H]2[C@H](NC(=O)Cc3ccccc3)C(=O)N2[C@H]1C(=O)O.CCN(CC)CCOC(=O)c1ccc(N)cc1 [Penicillin G Procaine]	0.082	6.21	0.098	9.24	0.108	11.14	0.104	11.94	0.085	6.16	0.099	9.13	0.106	11.13	0.099	11.98	0.081	6.34	0.098	9.16	% Lactic Acid (30 ppm, 36 hours): 0.103%; % wt EtOH (30 ppm, 36 hours): 11.18 % wt; % Lactic Acid (30 ppm, 48 hours): 0.100%; % wt EtOH (30 ppm, 48 hours): 11.91 % wt
CC1(C)S[C@@H]2[C@H](NC(=O)Cc3ccccc3)C(=O)N2[C@H]1C(=O)[O-].[K+] [Penicillin G Potassium]	0.083	6.16	0.100	9.12	0.108	11.12	0.104	11.89	0.081	6.05	0.100	9.15	0.105	11.05	0.100	11.92	0.082	6.07	0.096	9.13	% Lactic Acid (30 ppm, 36 hours): 0.106%; % wt EtOH (30 ppm, 36 hours): 11.12 % wt; % Lactic Acid (30 ppm, 48 hours): 0.101%; % wt EtOH (30 ppm, 48 hours): 11.83 % wt
